Values belong to the molecule of their own block, whether it stands above or below them.
What was measured:
[1] = Rabbit Cornea Homogenate stability (esterase) assay, Method 1; type: in vitro ADME; details: for Esterase % Lifitegrast formation at 45 min: 37° C., Method 1 (50 mM HEPES pH 7.5); for Esterase % keratolytic agent formation at 45 min / API Formation rate (%/min): Method 1
Procedure: (§1) Determining Rabbit Cornea Homogenate stability of the test compounds was performed using HPLC-MS or UPLC-MS. The assay was performed at two concentrations of Rabbit Cornea Homogenate (0.15 mg/mL and 0.45 mg/mL total protein) so that any hydrolysis observed can be assigned as esterase dependent or not.
(§2) Three to five rabbit corneas (e.g. New Zealand Whites (NZW) or Dutch Belted (DB)) of approx. 50 mg each were sliced and scraped with a scalpel and tweezers until reduced to small (1-3 mm), thin pieces. These were transferred into a glass vial containing approximately 2 mL of cold DPBS pH 7.4 buffer.
(§3) Sample was cooled intermittently on ice and shear homogenized for 3 minutes, then centrifuged for 3 min at 13,000 g. The supernatant was pipetted off into a vial, and total protein concentration determined at 280 nm. Sample was stored at −78° C.
10 mM Compound stocks were diluted to 100 μM in a 96 deep-well plate: 10 μL of 10 mM Compound stock was added to 990 μL 50 mM HEPES, pH 7.5 buffer. Compounds were further diluted to 10 μM: 100 μL of 100 μM compound was added to 900 μL 50 mM HEPES, pH 7.5 buffer. Esterase homogenate was diluted to 300 ng/μL and 900 ng/μL.
A heater shaker was set to 37° C. Into a suitable 96 well plate (Run Plate), 75 μL of 300 or 900 ng/μL esterase homogenate was pipetted into each of the required wells (2 min, 5 min, 10 min, 20 min and 45 min). The plate was sealed and then warmed at 37° C. for 5 min.
Another 96 well PCR plate was put on ice (Kill Plate). To this was added 100 μL of MeCN to each well, labelled 0 min 2 min, 5 min, 10 min, 20 min and 45 min. The plate was covered to minimize evaporation.
For the T=0 sample only, to the 100 μL cold MeCN stop solution was added 50 μL of 300 or 900 ng/μL esterase homogenate followed by 50 μL of 10 μM compound solution. For the remaining timepoints, 75 μL of 10 μM compound solution was added to the Run Plate starting from T=45 min row and ending with T=2 min row. At the appropriate time point, 100 μL of the assay mixture was added to the matching kill plate well containing 100 μL of cold MeCN. Samples were analyzed as soon as practicable by LCMS (Waters Xevo TQ-S or Micromass Ultima).
(§4) Parent conjugate and parent concentrations were determined against appropriate standard response curves and the half-life (T½) of the parent conjugate was calculated using the peak area of the parent conjugate at each time point in the linear region of the log-linear plot.

[2] = Aqueous hydrolysis stability assay, Method 1; type: physicochemical; details: 45 min; Method 1: 50 mM HEPES pH 7.5 or 1:1 acetonitrile:water, room temperature
Procedure: (§5) Determination of aqueous stability of the test compounds was performed using HPLC-MS or UPLC-MS. A test compound 10 mM stock solution was prepared in DMSO. Half-life (T1/2) of the parent conjugate is calculated using the peak area of the parent conjugate at each time point in the linear region of the log-linear plot.
10 μL of the DMSO stock solution was dissolved in 990 μL of 50 mM HEPES pH 7.5 buffer or 1:1 (v/v) of acetonitrile:water to make a 100 μM solution. Final DMSO concentration was 1%. The solution was kept at room temperature and injected without delay into the LCMS (Waters Xevo TQ-S or Micromass Ultima). Additional injections were performed at appropriate time points.

[3] = Aqueous hydrolysis stability assay, Method 2; type: physicochemical; details: Method 2: DPBS pH 7.4, 37° C.
Procedure: as §5
10 μL of the DMSO stock solution is dissolved in 990 μL of DPBS pH 7.4 buffer to prepare 100 μM solution. A further dilution is made by dissolving 75 μL of 100 μM stock solution into 225 μL of DPBS. Final DMSO concentration is 0.25%. The solution is kept at 37° C. and injected without delay into the LCMS (Waters Xevo XSQ-ToF). Additional injections are performed at appropriate time points.

[4] = Rabbit Cornea Homogenate stability (esterase) assay, Method 2; type: in vitro ADME; details: for Esterase % Lifitegrast formation at 45 min: 37° C., Method 2 (DPBS pH 7.4); for API Formation rate (%/min): Method 2
Procedure: as §1, §2, §3
10 mM Compound DMSO stocks were diluted to 10 μM in a glass vial: 10 μL of 10 mM Compound stock was added to 9,990 μL DPBS, pH 7.4 buffer. Esterase homogenate was diluted to 300 ng/μL and 900 ng/μL in DPBS. […]
A heater shaker was set to 37° C. Into a suitable 96 well plate (Run Plate), 80 μL of 300 or 900 ng/μL esterase homogenate was pipetted into two rows as compounds were analyzed in duplicate (0 min, 2 min, 5 min, 10 min, 20 min and 45 min). The plate was sealed and then warmed at 37° C. for 5 min.
Two 96 shallow-well plates were placed on ice (Kill Plates). To these, 180 μL of 60:40 MeCN-H2O+0.1% acetic acid were added to required rows. The plates were sealed to minimise evaporation.
To both rows of the Run Plate, 80 μL of 10 μM compound solution was added. At the appropriate time point, 20 μL of the assay mixture was added to the matching kill plate well containing 180 μL of 60:40 cold MeCN-H2O+0.1% acetic acid. For lipoic acid analysis, samples were analysed as soon as practicable by LCMS (Waters Xevo TQ-S). For parent conjugate and parent analysis the samples were diluted further 1 in 10: 20 μL supernatant was added to 180 μL of 50:50 MeCN—H2O.
as §4, with “Parent conjugate, parent” for “Parent conjugate”, “and keratolytic” for “and parent”, “area or the measured concentration” for “area”

[5] = tested on: human T-cell line; details: in vitro; cited from earlier work
[6] = tested on: human peripheral blood mononuclear cells; details: in vitro; cited from earlier work
[7] = tested on: patients with dry eye and delayed tear clearance; details: 0.5% ophthalmic suspension, QID, 4 weeks, 64 patients (Pflugfelder et al 2004); cited from earlier work
[8] = Cornea Homogenate Conc 0.15 mg/mL
[9] = Cornea Homogenate Conc 0.45 mg/mL

- API Formation rate (%/min) [1, 8]: a (API formation rate <0.5%/min)
- API Formation rate (%/min) [1, 9]: a (API formation rate <0.5%/min)
- Hydrolytic % Lifitegrast formation at [time] [2]: C [45 min] (percent API formation >4%)
SMILES: CC(=O)N[C@@H](CS)C(=O)OC(C)OC(=O)[C@H](Cc1cccc(S(C)(=O)=O)c1)NC(=O)c1c(Cl)cc2c(c1Cl)CCN(C(=O)c1ccc3ccoc3c1)C2 (some centres unmarked) [Compound 5]
- Esterase % Lifitegrast formation at 45 min [1, 8]: A (percent active pharmaceutical ingredient (API) formation <25%)
- Esterase % keratolytic agent formation at 45 min [1, 8]: A (percent active pharmaceutical ingredient (API) formation <25%)
- Esterase % Lifitegrast formation at 45 min [1, 9]: A (percent active pharmaceutical ingredient (API) formation <25%)
- Esterase % keratolytic agent formation at 45 min [1, 9]: A (percent active pharmaceutical ingredient (API) formation <25%)

- Hydrolytic % Lifitegrast formation at [time] ([3]; 60 min): C [60 min] (percent API formation >4%)
- Esterase % Lifitegrast formation at 45 min [4, 8]: D (percent API formation >75%)
- API Formation rate (%/min) [4, 8]: d (API formation rate >1.5%/min)
- Esterase % Lifitegrast formation at 45 min [4, 9]: D (percent API formation >75%)
- API Formation rate (%/min) [4, 9]: d (API formation rate >1.5%/min)
SMILES: CC(=O)SCC(=O)OC(C)OC(=O)[C@H](Cc1cccc(S(C)(=O)=O)c1)NC(=O)c1c(Cl)cc2c(c1Cl)CCN(C(=O)c1ccc3ccoc3c1)C2 (some centres unmarked) [Compound 31]

- Hydrolytic % Lifitegrast formation at [time] ([3]; 44 min): C [44 min] (percent API formation >4%)
- Esterase % Lifitegrast formation at 45 min [4, 8]: C (percent API formation 51% to 75%)
- API Formation rate (%/min) [4, 8]: c (API formation rate 1.0-1.5%/min)
- Esterase % Lifitegrast formation at 45 min [4, 9]: C (percent API formation 51% to 75%)
- API Formation rate (%/min) [4, 9]: c (API formation rate 1.0-1.5%/min)
SMILES: CC(OC(=O)CCC(=O)O)OC(=O)[C@H](Cc1cccc(S(C)(=O)=O)c1)NC(=O)c1c(Cl)cc2c(c1Cl)CCN(C(=O)c1ccc3ccoc3c1)C2 (some centres unmarked) [Compound 45]

SMILES: CS(=O)(=O)c1cccc(C[C@H](NC(=O)c2c(Cl)cc3c(c2Cl)CCN(C(=O)c2ccc4ccoc4c2)C3)C(=O)O)c1 [lifitegrast]
- inhibition of T-cell adhesion to ICAM-1 [5]: may inhibit T-cell adhesion to ICAM-1
- inhibition of secretion of inflammatory cytokines [6]: may inhibit secretion of inflammatory cytokines

SMILES: CCOC(=O)O[C@]1(C(=O)OCCl)CC[C@H]2[C@@H]3CCC4=CC(=O)C=C[C@]4(C)[C@H]3[C@@H](O)C[C@@]21C [loteprednol etabonate]
- improving some signs and symptoms versus vehicle [7]: more effective than its vehicle

Source: US20230399317A1, “COMPOUNDS AND METHODS FOR THE TREATMENT OF OCULAR DISORDERS” (Azura Ophthalmics Ltd., priority 2020, published 2023)
